The results in this text go back to US11154514B2, “Quinic acid-modified nanoparticles and uses thereof” (Purdue Research Foundation, priority 2017, dated 2021).

The target of one data set is T1, E-selectin (Homo sapiens, UniProt P16581).
T1 construct: TNF-α treatment induces the expression of E-selectin on HUVECs; endogenous in cells
T1 sequence (P16581 22-610): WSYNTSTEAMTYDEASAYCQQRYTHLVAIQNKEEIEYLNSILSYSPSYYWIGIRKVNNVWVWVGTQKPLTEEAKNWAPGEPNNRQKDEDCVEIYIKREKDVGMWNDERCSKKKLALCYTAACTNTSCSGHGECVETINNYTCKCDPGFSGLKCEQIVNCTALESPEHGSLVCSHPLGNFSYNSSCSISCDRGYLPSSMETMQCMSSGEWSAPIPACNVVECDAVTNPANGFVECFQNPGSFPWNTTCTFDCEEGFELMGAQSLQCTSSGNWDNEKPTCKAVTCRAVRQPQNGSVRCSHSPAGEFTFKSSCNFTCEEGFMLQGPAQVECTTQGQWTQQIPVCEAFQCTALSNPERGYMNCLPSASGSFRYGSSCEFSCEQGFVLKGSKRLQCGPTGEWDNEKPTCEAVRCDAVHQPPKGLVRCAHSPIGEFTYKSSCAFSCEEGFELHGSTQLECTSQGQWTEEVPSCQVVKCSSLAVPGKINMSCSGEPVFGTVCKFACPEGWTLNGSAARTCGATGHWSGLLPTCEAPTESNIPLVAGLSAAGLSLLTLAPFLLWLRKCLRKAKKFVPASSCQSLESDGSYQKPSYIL
Description: Competitive inhibition of QANP binding to activated HUVECs. The class given is cell-based. As to conditions: pre-incubated 30 minutes, flow cytometry. The protocol:
For flow cytometry, HUVECs were treated with NPs in the same way as above and gently washed with PBS twice to remove free or loosely bound NPs. The cells were then trypsinized, collected by centrifugation at 930×g for 5 minutes, resuspended in 0.2 mL of PBS at 0° C., and analyzed with an Accuri C6 flow cytometer (BD Biosciences, San Jose, Calif., USA) equipped with an FL-1 detector (λex/λem=488/525 nm). For competition assay, known concentrations of free QA-NH2 or E-selectin antibody were pre-incubated with HUVECs for 30 minutes, prior to the NP treatment and flow cytometry.

Data set [1] has as its system subcutaneous MDA-MB-231 tumor xenografts. Kind of data set: In vivo whole body imaging and ex vivo organ distribution. More on the design: species or system female athymic nude mice. The note with it: tail vein, imaged over 24 hours. The protocol:
All animal procedures were approved by the Purdue Animal Care and Use Committee, in compliance with the NIH guidelines for the care and use of laboratory animals. Female athymic nude mice ([…]) at the age of 6-7 weeks were purchased from Envigo (Indianapolis, Ind., USA) and acclimatized for 1 week prior to the procedure. Each mouse received 5×10^6 MDA-MB-231 cells in the flank of hind leg by subcutaneous injection. […] […] After 48 hours, mice were sacrificed, and tumors and major organs were retrieved and imaged with IVIS Lumina system. To quantify ICG content in each organ, tumor and major organs were homogenized in DMSO with a Tissue Master homogenizer (Omni International, Kennesaw, Ga., USA). The organ homogenates were centrifuged, and 0.1 mL supernatant was sampled from each homogenate and analyzed with the IVIS Lumina system.

In the case of `Nc1cc(NC(=O)[C@]2(O)C[C@@H](O)[C@@H](O)[C@H](O)C2)cc(C(=O)O)c1` [QA-NH2, 3-amino-5-((1 S,3R,4S,5R)-1,3,4,5-tetrahydroxycyclohexane-1-carboxamido)benzoic Acid], on E-selectin, the “QANP binding to the activated HUVECs in presence of competitor” value is “reduced”.
On to `CC1(C)C(/C=C/C=C/C=C/C=C2\N(CCCCS(=O)(=O)O)c3ccc4ccccc4c3C2(C)C)=[N+](CCCCS(=O)(=O)[O-])c2ccc3ccccc3c21` [free ICG, indocyanine green], for which, in data set [1], the “tumor fluorescence (whole body imaging)” value is “did not show fluorescence in tumors at all time points”; the “whole body distribution and clearance” value is on record as “gradually cleared by hepatobiliary elimination”.
